Where two headings read alike, the source gives them in different places.

For one assay, the target named is T1, (H^+ -K^+)ATP-ase (Rattus norvegicus, UniProt P09626).
T1 construct: from tissue; host or cells: stomach of the living rat (subcutaneous dosing)
Briefly: in vivo inactivation of (H+-K+)ATP-ase in the rat. As to conditions: for t1/2 of inhibition of rat gastric (H+ + K+) ATPase activity (duration of action): 10 mg/kg subcutaneously. From the text: Certain of the compounds of this invention are preferred because of their long duration of action when administered parenterally (e.g., subcutaneously).

The target in a further assay is T2, gastric(H^+ -K^+)ATP-ase (Sus scrofa, UniProt P19156).
T2 construct: isolated hog gastric membranes; from tissue; host or cells: hog gastric membranes
In words: inhibition of K+-dependent ATP hydrolysis by isolated hog gastric membranes enriched with gastric (H+-K+)ATP-ase. The format is biochemical. As to conditions: read-out: ED50, inhibition of K+-dependent ATP hydrolysis.

A further assay relates to gastric acid secretion. In words: rat gastric antisecretory assay. The format is in vivo.
In assay [1] the test system is acid secretion in isolated gastric glands. In words: inhibition of acid secretion in isolated gastric glands of the rabbit. The format is cell-based. As to conditions: Oryctolagus cuniculus, read-out: ID50, inhibition of acid secretion.

T1 sequence (P09626 2-1033 limits assumed): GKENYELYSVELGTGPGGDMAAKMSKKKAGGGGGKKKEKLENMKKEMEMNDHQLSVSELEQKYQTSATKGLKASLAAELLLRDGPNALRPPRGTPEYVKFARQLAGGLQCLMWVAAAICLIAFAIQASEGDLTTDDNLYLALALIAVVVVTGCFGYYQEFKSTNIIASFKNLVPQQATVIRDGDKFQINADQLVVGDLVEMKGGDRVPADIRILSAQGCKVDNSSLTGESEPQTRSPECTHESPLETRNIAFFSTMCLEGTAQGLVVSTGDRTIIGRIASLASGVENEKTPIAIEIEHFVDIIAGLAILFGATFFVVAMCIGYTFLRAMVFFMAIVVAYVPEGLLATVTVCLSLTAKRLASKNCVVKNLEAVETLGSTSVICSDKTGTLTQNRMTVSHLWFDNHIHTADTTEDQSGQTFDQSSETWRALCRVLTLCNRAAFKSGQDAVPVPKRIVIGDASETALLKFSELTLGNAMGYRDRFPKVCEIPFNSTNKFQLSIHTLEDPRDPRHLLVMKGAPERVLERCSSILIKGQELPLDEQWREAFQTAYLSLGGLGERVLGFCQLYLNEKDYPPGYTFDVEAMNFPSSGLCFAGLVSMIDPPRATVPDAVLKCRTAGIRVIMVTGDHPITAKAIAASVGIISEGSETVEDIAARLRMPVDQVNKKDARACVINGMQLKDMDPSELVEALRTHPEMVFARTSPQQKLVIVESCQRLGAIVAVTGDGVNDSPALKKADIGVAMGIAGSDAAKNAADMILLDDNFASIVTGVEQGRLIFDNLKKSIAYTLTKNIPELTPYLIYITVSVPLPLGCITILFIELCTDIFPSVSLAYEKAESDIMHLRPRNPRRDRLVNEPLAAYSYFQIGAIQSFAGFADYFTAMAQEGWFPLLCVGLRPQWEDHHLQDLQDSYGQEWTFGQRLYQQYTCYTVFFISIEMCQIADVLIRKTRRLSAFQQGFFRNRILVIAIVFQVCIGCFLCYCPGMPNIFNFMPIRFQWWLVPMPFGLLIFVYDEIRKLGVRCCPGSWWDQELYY
T1 sequence (P18598 whole entry partner): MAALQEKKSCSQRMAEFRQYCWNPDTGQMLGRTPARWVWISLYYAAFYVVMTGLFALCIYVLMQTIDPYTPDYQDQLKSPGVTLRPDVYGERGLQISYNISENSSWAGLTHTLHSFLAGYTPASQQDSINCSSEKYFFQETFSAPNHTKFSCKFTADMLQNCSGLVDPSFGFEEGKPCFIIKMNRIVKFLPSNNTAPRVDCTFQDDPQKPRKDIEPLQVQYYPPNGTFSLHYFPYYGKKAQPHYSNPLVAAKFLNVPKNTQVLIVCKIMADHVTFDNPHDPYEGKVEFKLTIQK
T2 sequence (P19156 2-1034 limits assumed): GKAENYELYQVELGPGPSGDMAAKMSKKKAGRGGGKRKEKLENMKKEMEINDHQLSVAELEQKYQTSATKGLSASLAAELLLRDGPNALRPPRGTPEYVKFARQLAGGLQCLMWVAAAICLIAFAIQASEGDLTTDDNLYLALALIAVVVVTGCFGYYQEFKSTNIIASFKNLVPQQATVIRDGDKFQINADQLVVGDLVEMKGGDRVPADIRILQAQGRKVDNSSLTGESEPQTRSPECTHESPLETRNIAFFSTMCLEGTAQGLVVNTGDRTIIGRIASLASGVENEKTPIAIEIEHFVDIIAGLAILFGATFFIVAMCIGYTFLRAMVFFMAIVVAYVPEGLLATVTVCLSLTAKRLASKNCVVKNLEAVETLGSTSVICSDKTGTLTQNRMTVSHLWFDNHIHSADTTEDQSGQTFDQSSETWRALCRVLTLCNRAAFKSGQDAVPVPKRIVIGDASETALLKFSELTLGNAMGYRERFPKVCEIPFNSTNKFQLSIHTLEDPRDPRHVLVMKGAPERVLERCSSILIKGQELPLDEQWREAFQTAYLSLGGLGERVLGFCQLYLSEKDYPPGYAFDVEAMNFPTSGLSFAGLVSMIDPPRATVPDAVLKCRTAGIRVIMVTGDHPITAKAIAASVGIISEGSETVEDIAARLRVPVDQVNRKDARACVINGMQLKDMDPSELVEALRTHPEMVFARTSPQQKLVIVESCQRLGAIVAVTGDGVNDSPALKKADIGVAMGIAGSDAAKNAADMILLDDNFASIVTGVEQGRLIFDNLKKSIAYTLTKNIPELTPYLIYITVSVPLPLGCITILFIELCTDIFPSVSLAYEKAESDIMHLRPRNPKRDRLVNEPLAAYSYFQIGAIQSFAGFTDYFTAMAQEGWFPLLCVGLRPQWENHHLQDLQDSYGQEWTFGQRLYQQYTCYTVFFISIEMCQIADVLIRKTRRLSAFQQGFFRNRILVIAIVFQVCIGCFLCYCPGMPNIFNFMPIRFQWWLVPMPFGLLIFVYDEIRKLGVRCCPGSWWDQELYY
T2 sequence (P18434 whole entry partner): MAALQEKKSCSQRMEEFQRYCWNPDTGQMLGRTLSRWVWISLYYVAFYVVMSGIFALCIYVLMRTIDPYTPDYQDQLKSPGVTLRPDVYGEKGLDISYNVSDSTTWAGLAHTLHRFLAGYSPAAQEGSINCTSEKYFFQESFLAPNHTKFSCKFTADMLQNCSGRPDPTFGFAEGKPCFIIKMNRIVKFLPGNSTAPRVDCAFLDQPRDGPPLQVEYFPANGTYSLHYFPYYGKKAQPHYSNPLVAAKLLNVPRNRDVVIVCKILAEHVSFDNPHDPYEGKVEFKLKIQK

Turning to `[O-][S+](Cc1nccc2c1CCCS2)c1nc2ccccc2[nH]1` (stereo not shown) [Example 10, 2-[(5-Thia-5,6,7,8-tetrahydroisoquinolin-1-ylmethyl)sulfinyl]-benzimidazole], the “t1/2 of inhibition of rat gastric (H+ + K+) ATPase activity (duration of action)” value at (H^+ -K^+)ATP-ase turned out to be 48 h.

The term ED50 denotes the midpoint of the dose-response relation. As to `COc1ccc2nc([S+]([O-])Cc3nccc4c3CCCO4)[nH]c2c1` (stereo not shown) [Example 6, 2-[(6-Azachroman-5-yl)methyl]sulfinyl-5-methoxybenzimidazole], the IC50 on gastric(H^+ -K^+)ATP-ase was found to be 10 µM. Moreover, the ED50 at (H^+ -K^+)ATP-ase (sc, administered subcutaneously) is 1 mg/kg; with gastric acid secretion (administered intraduodenally, read-out: ED50, rat gastric antisecretory assay), 0.7 mg/kg. Turning to `[O-][S+](Cc1nccc2c1CCCC2)c1nc2ccccc2[nH]1` (stereo not shown) [2-[(5,6,7,8-tetrahydroisoquinolin-1-ylmethyl)sulfinyl]benzimidazole], at (H^+ -K^+)ATP-ase, the “t1/2 of inhibition of rat gastric (H+ + K+) ATPase activity (duration of action)” value is 96 h.

For `COc1ccc2nc([S+]([O-])Cc3nccc4c3CCCC4)[nH]c2c1` (stereo not shown) [Example 4, 2-[(5,6,7,8-Tetrahydroisoquinolin-1-yl)methyl]sulfinyl-5-methoxybenzimidazole], the IC50 in assay [1] turned out to be 0.8 µM. Moreover, in the assay on gastric acid secretion (sc, administered subcutaneously, read-out: ED50, inhibition of gastric acid secretion), the ED50 worked out at 1.8 mg/kg.

Values taken from patent US5077407A, “Substituted 2-[monoannelated (3,4-,4,5-, and 5,6-) pyridylalkylenesulfinyl]benzimidazoles” (The Upjohn Company, priority 1988, dated 1991).
